Assay [1] concerns osteoarthritic joint of mice after ACL surgery. The experiment in a line: Osteoarthritis mouse model (ACL surgery). The format is in vivo. The method, then: A table and schematic of two osteoarthritis mouse model study designs are presented in FIGS. 35 and 36, respectively. The two treatment studies were designed to determine the effect of removing senescent cells in an animal model of osteoarthritis.
Parallel studies were performed. One study investigated the effect of eliminating senescent cells with ganciclovir (GCV) in 3MR mice. Mice underwent surgery to cut the anterior cruciate ligament of one rear limb to induce osteoarthritis in the joint of that limb. During week 2 post-surgery, 3MR mice received 2.5 μg GCV to the operated knee by intra-articular injection, qd for 5 days, with a 2nd treatment (2.5 μg GCV qd for 5 days) during week 4 post-surgery. At the end of 4 weeks post-surgery, operated joints of the mice were monitored for presence of senescent cells, assessed for function, monitored for markers of inflammation, and underwent histological assessment.
In a parallel study, C57BL/6J mice underwent surgery to cut the anterior cruciate ligament of one rear limb to induce osteoarthritis in the joint of that limb. During week 3 and week 4 post-surgery, the mice were treated with 5.8 μg of Nutlin-3A (n=7) per operated knee by intra-articular injection, qod for 2 weeks. At the end of 4 weeks post-surgery, joints of the mice were monitored for presence of senescent cells, assessed for function, monitored for markers of inflammation, and underwent histological assessment.
Two control groups of mice were included in the studies performed: one group comprising C57BL/6J or 3MR mice that had undergone a sham surgery (n=3) (i.e., surgical procedures followed except for cutting the ACL) and intra-articular injections of vehicle parallel to the GCV-treated group; and one group comprising C57BL/6J or 3MR mice that had undergone an ACL surgery and received intra-articular injections of vehicle (n=5) parallel to the GCV-treated group.
RNA from the operated joints of mice from the Nutlin-3A treated mice was analyzed for expression of SASP factors (mmp3, IL-6) and senescence markers (p16). qRT-PCR was performed to detect mRNA levels. […] RNA from the operated joints of mice was also analyzed for expression of type 2 collagen and compared with expression of actin as a control.
Function of the limbs was assessed 4 weeks post-surgery by a weight bearing test to determine which leg the mice favored (FIG. 39). The mice were allowed to acclimate to the chamber on at least 3 occasions prior to taking measurements. Mice were maneuvered inside the chamber to stand with 1 hind paw on each scale. The weight that was placed on each hind limb was measured over a 3-second period. At least 3 separate measurements were made for each animal at each time point. The results were expressed as the percentage of the weight placed on the operated limb versus the contralateral unoperated limb.
The function of the limbs was also assessed at 4 weeks post-surgery by hotplate analysis to show sensitivity and reaction to pain stimulus. In brief, a mouse was placed on a hotplate at 55° C. When placed on the hot surface of the plate, mice will lift their paws and lick them (paw-lick response) due to attainment of pain threshold. The latency period for the hind limb response (paw-lick response) is recorded as response time.
Histopathology of osteoarthritis induced by ACL surgery illustrated that the proteoglycan layer was destroyed. […] Clearing of senescent cells from the 3MR mice treated with GCV, which kills senescent cells, had the same impact on pathophysiology of osteoarthritis as Nutlin-3A.

Assay [2] has as its system LDLR-/-/3MR double transgenic mice. The experiment in a line: Mature atherosclerotic plaques in LDLR-/-/3MR mice, 100 day treatment period. The note with it: vs LDLR-/- control. The format is in vivo, mouse. As for the experimental part:
The impact of clearance of senescent cells on the stability and size of mature atherosclerotic plaques was studied in LDLR^−/−/3MR double transgenic mice. From 10 weeks of age, LDLR^−/−/3MR double transgenic mice (10 weeks) and LDLR^−/− single transgenic mice (control) were fed a high fat diet (Harlan Teklad TD.88137) having 42% calories from fat beginning at Week 0 until Week 12.5, when the mice were switched to normal chow diet. Both groups of mice were treated with ganciclovir from week 12.5 over the next 100 days, with each treatment cycle comprising 5 days of ganciclovir (25 mg/kg intraperitoneally daily) and 14 days off. At the end of the 100 day treatment period, the mice were sacrificed, plasma and tissues were collected, and atherosclerosis was quantitated. Descending aortas were dissected and stained with Sudan IV to visualize the plaque lipids. […] Plaques from ganciclovir-treated LDLR^−/− control and LDLR^−/−/3MR mice (see dashed circled plaques in FIGS. 55A-B, respectively) were harvested and cut into cross-sections and stained with […] the general architecture of the atherosclerotic plaques. “#” indicates fat located on the outside of the aorta (see FIG. 55A). The plaques marked with an “*” and “**” in FIGS. 55A and B, respectively, are shown as stained cross-sections in FIGS. […], respectively. […] The plaque from the control mice has identifiable “lipid pockets” accumulating within. […] Disruption or tear in the cap of a lipid-rich plaque is a trigger for coronary events through exposure of plaque thrombogenic components to platelets and clotting components of the blood. Plaques that grow more rapidly as a result of rapid lipid deposition and have thin fibrin caps are prone to rupture. Slowly growing plaques with mature fibrin caps tend to stabilize and are not prone to rupture. Taken together, these experiments indicate that removal of senescent cells may affect atherosclerotic plaque architecture and have a stabilizing effect.

As to `COc1ccc(C2=N[C@@H](c3ccc(Cl)cc3)[C@@H](c3ccc(Cl)cc3)N2C(=O)N2CCNC(=O)C2)c(OC(C)C)c1` [Nutlin-3a], the “Type 2 collagen expression in operated joints” value in assay [1] (5.8 μg per knee intra-articular, vs untreated mice) is reported as “drives collagen production”. Further, in assay [1] (4 weeks post-surgery), the “Weight bearing test (weight on operated vs unoperated limb)” value was “abrogates this effect”. Besides, the “Hotplate paw-lick response time” value in assay [1] (55° C., 4 weeks post-surgery) is recorded as “decreases the response time in a significant manner”. Further, the “Histopathology: destruction of the proteoglycan layer” value in assay [1] (C57BL/6J, 5.8 μg per knee intra-articular) is given as “completely abrogated this effect”. In assay [1] (C57BL/6J, 5.8 μg per knee intra-articular qod 2 weeks, 4 weeks post-surgery), the “Senescent cells in the joint (p16 and SASP factor mRNA, qRT-PCR)” value is recorded as “clears senescent cells from the joint”.

Regarding `Nc1nc(O)c2ncn(COC(CO)CO)c2n1` [ganciclovir], in assay [2] (25 mg/kg i.p. 5 days on, 14 days off, 100 days), the “Atherosclerotic plaques in descending aorta (Sudan IV staining)” value is “fewer atherosclerotic plaques with less intense staining”. Moreover, in assay [2] (100 day treatment), the “% of the aorta covered in plaques (area of Sudan IV staining)” value is given as “significantly lower”; the “Plaque morphology (cross-sections)” value was “presence of a thick fibrin cap and the absence of lipid pockets”. For the same compound, the “Histopathology: impact on pathophysiology of osteoarthritis” value in assay [1] (3MR mice, 2.5 μg intra-articular qd 5 days, weeks 2 and 4) is reported as “same impact”.

The record behind these values is patent US11980616B2, “Treating liver disease by selectively eliminating senescent cells” (Buck Institute for Research on Aging, priority 2014, dated 2024).
